The values that follow come from ChEMBL document CHEMBL3817784, “The role of transporter ectodomains in drug recognition and binding: phlorizin and the sodiumglucose cotransporter” (Medchemcomm, 2016).

The species entered for assay [1] is Homo sapiens. The assay is described as follows: Binding affinity to SGLT1 D621W mutant (unknown origin) by tryptophan fluorescence quenching method.
Assay [2] is filed under the species Homo sapiens. The assay is described as follows: Binding affinity to SGLT1 R601W mutant (unknown origin) by tryptophan fluorescence quenching method.
The target of assay [3] is T1, Sodium/glucose cotransporter 2 (Rattus norvegicus, UniProt P53792).
T1 sequence (P53792 whole entry): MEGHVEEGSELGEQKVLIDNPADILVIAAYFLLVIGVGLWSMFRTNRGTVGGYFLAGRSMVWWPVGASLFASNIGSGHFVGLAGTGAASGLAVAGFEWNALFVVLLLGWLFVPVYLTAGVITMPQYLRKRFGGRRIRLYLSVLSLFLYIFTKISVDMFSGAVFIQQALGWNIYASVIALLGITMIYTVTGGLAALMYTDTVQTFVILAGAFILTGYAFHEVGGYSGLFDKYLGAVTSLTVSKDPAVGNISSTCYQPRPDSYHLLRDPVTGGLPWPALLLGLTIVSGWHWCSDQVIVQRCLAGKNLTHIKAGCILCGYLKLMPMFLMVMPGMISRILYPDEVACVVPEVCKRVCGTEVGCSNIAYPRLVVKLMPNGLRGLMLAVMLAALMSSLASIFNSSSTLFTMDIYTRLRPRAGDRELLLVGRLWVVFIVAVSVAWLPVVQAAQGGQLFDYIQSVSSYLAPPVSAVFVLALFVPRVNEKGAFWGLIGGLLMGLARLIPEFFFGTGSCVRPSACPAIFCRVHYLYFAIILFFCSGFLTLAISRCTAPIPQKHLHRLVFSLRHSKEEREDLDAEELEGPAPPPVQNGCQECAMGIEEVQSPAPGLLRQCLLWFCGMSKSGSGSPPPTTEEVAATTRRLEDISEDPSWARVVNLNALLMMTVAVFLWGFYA
The assay is described as follows: Binding affinity to SGLT2 in isolated rat renal cortex brush border membranes using maleimide-PEG800-NHS to couple compound to AFM cantilever tip.

Consider `O=C(CCc1ccc(O)cc1)c1c(O)cc(O)cc1O[C@@H]1O[C@H](CO)[C@@H](O)[C@H](O)[C@H]1O`, for which the Qmax in the assay listed under Homo sapiens [1] is 80%; in the assay filed under Homo sapiens [2], 67%.

Broadly, the Kd is the concentration at which binding is half-saturated. The compound `O=C(CCCCCS)Nc1cc(CCC(=O)c2c(O)cc(O)cc2O[C@@H]2O[C@H](CO)[C@@H](O)[C@H](O)[C@H]2O)ccc1O` had a dissociation constant Kd in assay [3] of 0.2 µM.
